Experimental data from patent publication US20170333591A9, “ABSORBENT ARTICLE COMPRISING MALODOR REDUCTION COMPOSITIONS” (The Procter & Gamble Company, priority 2014, published 2017).

Test: Log of liquid dish neat product liquid-air partition coefficient
Format: physicochemical
Settings: for Log of liquid dish neat product liquid-air partition coefficient (Comment Code K/L): code letter within the Comment Code cell

Row | Compound | Comment Code: Log of liquid dish neat product liquid-air partition coefficient | Log of liquid dish neat product liquid-air partition coefficient (Comment Code K/L)
1 | CCC(=O)OC1CC2C3C=CCC3C1C2(C)C (stereo not drawn) [Material 343] | K (Log of liquid dish neat product liquid-air partition coefficient greater than or equal to 7) | K (Log of liquid dish neat product liquid-air partition coefficient greater than or equal to 7)
2 | CCOC(=O)C12CCCC1C1CCC2C1 (stereo not drawn) [Material 344] | – | K (Log of liquid dish neat product liquid-air partition coefficient greater than or equal to 7)
3 | CCOC(=O)C1CCC(C(=O)OCC)CC1 (stereo not drawn) [Material 347] | – | K (Log of liquid dish neat product liquid-air partition coefficient greater than or equal to 7)
4 | CC(C)CC1CC(C)(O)CCO1 (stereo not drawn) [Material 350] | – | K (Log of liquid dish neat product liquid-air partition coefficient greater than or equal to 7)
5 | C=CCCCCCCCCC#N [Material 352] | – | K (Log of liquid dish neat product liquid-air partition coefficient greater than or equal to 7)
6 | C/C=C1/CC2CC1C1CCC(=O)OC21 (stereo not drawn) [Material 353] | K (Log of liquid dish neat product liquid-air partition coefficient greater than or equal to 7) | K (Log of liquid dish neat product liquid-air partition coefficient greater than or equal to 7)
7 | CCc1ccccc1CC(C)(C)C=O [Material 354] | K (Log of liquid dish neat product liquid-air partition coefficient greater than or equal to 7) | –
8 | CCOC(=O)OC1CCCCC1C(C)(C)C (stereo not drawn) [Material 355] | K (Log of liquid dish neat product liquid-air partition coefficient greater than or equal to 7) | –
9 | CCc1ccccc1CC(C)(C)C=O [Material 356] | – | K (Log of liquid dish neat product liquid-air partition coefficient greater than or equal to 7)
10 | CC(O)C(C)/C=C1\C[C@H]2C[C@@H]1[C@@H]1C=CC[C@H]21 (stereo partly drawn) [Material 359] | K (Log of liquid dish neat product liquid-air partition coefficient greater than or equal to 7) | K (Log of liquid dish neat product liquid-air partition coefficient greater than or equal to 7)
11 | CC(=O)OC1CC2C3C=CCC3C1C2(C)C (stereo not drawn) [Material 360] | K (Log of liquid dish neat product liquid-air partition coefficient greater than or equal to 7) | K (Log of liquid dish neat product liquid-air partition coefficient greater than or equal to 7)
12 | CCc1ccc(CC(C)(C)C#N)cc1 [Material 361] | – | K (Log of liquid dish neat product liquid-air partition coefficient greater than or equal to 7)
13 | CCOC(C)OC1CCCCCCCCCCC1 (stereo not drawn) [Material 363] | – | K (Log of liquid dish neat product liquid-air partition coefficient greater than or equal to 7)
14 | CC(=O)OCC=C(C)CCC=C(C)CCC=C(C)C [Material 368] | – | K (Log of liquid dish neat product liquid-air partition coefficient greater than or equal to 7)
15 | CC(C)=CCCC(C)=CCCC(C)=CCO [Material 369] | – | K (Log of liquid dish neat product liquid-air partition coefficient greater than or equal to 7)
16 | O=C1CCCCCCCCCCCCCCO1 [Material 370] | – | K (Log of liquid dish neat product liquid-air partition coefficient greater than or equal to 7)
17 | O=C1CCC=CCCCCCCCCCC1 [Material 371] | – | K (Log of liquid dish neat product liquid-air partition coefficient greater than or equal to 7)
18 | O=C1CCC=CCCCCCCCCCC1 [Material 372] | – | K (Log of liquid dish neat product liquid-air partition coefficient greater than or equal to 7)
19 | C=CCc1ccc(OC(C)=O)c(OC)c1 [Material 374] | – | K (Log of liquid dish neat product liquid-air partition coefficient greater than or equal to 7)
20 | C=CCc1ccc(O)c(OC)c1 [Material 375] | – | K (Log of liquid dish neat product liquid-air partition coefficient greater than or equal to 7)
21 | CCOC(=O)C1OC1(C)c1ccccc1 (stereo not drawn) [Material 377] | – | K (Log of liquid dish neat product liquid-air partition coefficient greater than or equal to 7)
22 | C=CCCCCCCCCC(=O)OCC [Material 381] | – | K (Log of liquid dish neat product liquid-air partition coefficient greater than or equal to 7)
23 | CCCCCCCCCCCCCC(=O)OCC [Material 388] | – | K (Log of liquid dish neat product liquid-air partition coefficient greater than or equal to 7)
24 | C=CC(O)(CC)CCC=C(C)C (stereo not drawn) [Material 390] | – | K (Log of liquid dish neat product liquid-air partition coefficient greater than or equal to 7)

Row | Compound | Comment Code: Log of liquid dish neat product liquid-air partition coefficient | Log of liquid dish neat product liquid-air partition coefficient (Comment Code K/L)
25 | CCCCCCCCCCCC(=O)OCC [Material 391] | – | K (Log of liquid dish neat product liquid-air partition coefficient greater than or equal to 7)
26 | CCCCCCCCCC(=O)OCC [Material 397] | – | K (Log of liquid dish neat product liquid-air partition coefficient greater than or equal to 7)
27 | CCOC(=O)C=Cc1ccccc1 [Material 400] | K (Log of liquid dish neat product liquid-air partition coefficient greater than or equal to 7) | –
28 | CCC1=CCCC(C)(C)C12C=CC(C)O2 (stereo not drawn) [Material 413] | – | K (Log of liquid dish neat product liquid-air partition coefficient greater than or equal to 7)
29 | C=CC1(C)CCC(C(C)(C)O)CC1C(=C)C (stereo not drawn) [Material 414] | – | K (Log of liquid dish neat product liquid-air partition coefficient greater than or equal to 7)
30 | CCOC(C)OCCc1ccccc1 (stereo not drawn) [Material 415] | – | K (Log of liquid dish neat product liquid-air partition coefficient greater than or equal to 7)
31 | CC1=CCC(C=CC(C)C(C)O)C1(C)C (stereo not drawn) [Material 416] | – | K (Log of liquid dish neat product liquid-air partition coefficient greater than or equal to 7)
32 | O=CCCC=C1CC2CC1C1CCCC21 (stereo not drawn) [Material 418] | – | K (Log of liquid dish neat product liquid-air partition coefficient greater than or equal to 7)
33 | CC1CCOC(c2ccccc2)C1 (stereo not drawn) [Material 420] | K (Log of liquid dish neat product liquid-air partition coefficient greater than or equal to 7) | –
34 | CCCCCCCCCCCC(OC)OC [Material 421] | – | K (Log of liquid dish neat product liquid-air partition coefficient greater than or equal to 7)
35 | c1ccc(Oc2ccccc2)cc1 [Material 428] | – | K (Log of liquid dish neat product liquid-air partition coefficient greater than or equal to 7)
36 | c1ccc(Cc2ccccc2)cc1 [Material 429] | – | K (Log of liquid dish neat product liquid-air partition coefficient greater than or equal to 7)
37 | CCCC(=O)OC(C)(C)Cc1ccccc1 [Material 432] | – | K (Log of liquid dish neat product liquid-air partition coefficient greater than or equal to 7)
38 | C=CC(C)CCCC(C)(C)O (stereo not drawn) [Material 437] | K (Log of liquid dish neat product liquid-air partition coefficient greater than or equal to 7) | –
39 | CCCc1ccc(O)c(OC)c1 [Material 440] | K (Log of liquid dish neat product liquid-air partition coefficient greater than or equal to 7) | –
40 | C=C(C)C1CCC(C)C(OC(C)=O)C1 (stereo not drawn) [Material 444] | – | K (Log of liquid dish neat product liquid-air partition coefficient greater than or equal to 7)
41 | CC(=O)CCC1C(C)=CCCC1(C)C (stereo not drawn) [Material 448] | K (Log of liquid dish neat product liquid-air partition coefficient greater than or equal to 7) | –
42 | CCCCCCC1C(=O)CCC1C(=O)OC (stereo not drawn) [Material 450] | – | K (Log of liquid dish neat product liquid-air partition coefficient greater than or equal to 7)
43 | c1ccc(COCc2ccccc2)cc1 [Material 454] | K (Log of liquid dish neat product liquid-air partition coefficient greater than or equal to 7) | –
44 | c1ccc(CCc2ccccc2)cc1 [Material 457] | – | K (Log of liquid dish neat product liquid-air partition coefficient greater than or equal to 7)
45 | C=CC1(C)CCC(C(C)C)=CC1C(=C)C (stereo not drawn) [Material 461] | – | K (Log of liquid dish neat product liquid-air partition coefficient greater than or equal to 7)
46 | CCCCCCCC1CCCC(=O)O1 (stereo not drawn) [Material 463] | – | K (Log of liquid dish neat product liquid-air partition coefficient greater than or equal to 7)
47 | CC=CC(=O)C1C(C)C=CCC1(C)C (stereo not drawn) [Material 466] | – | K (Log of liquid dish neat product liquid-air partition coefficient greater than or equal to 7)
